One assay deals with T1, IL-17A/A (Homo sapiens, UniProt Q16552).
T1 construct: purchased Genscript Z03228
T1 sequence (Q16552 24-155): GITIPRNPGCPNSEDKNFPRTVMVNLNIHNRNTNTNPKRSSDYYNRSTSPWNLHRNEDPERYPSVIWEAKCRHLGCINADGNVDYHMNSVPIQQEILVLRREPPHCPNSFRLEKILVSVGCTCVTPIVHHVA
In words: IL-17A/A HEK-Blue cell assay (SEAP reporter). The note with it: HEK-Blue IL-17A reporter cells, IL17A/A 5 ng/mL, 20 hours, SEAP read at A630; read-out: HEK-Blue IL17AA (IC50 for IL-17A/A inhibition). The assay is classed as cell-based.

For another assay, the target named is T2, IL-17A/F (Homo sapiens, UniProt Q16552+Q96PD4).
T2 construct: purchased R&D Systems
T2 sequence (Q16552 24-155): T1 sequence (Q16552 24-155)
T2 sequence (Q96PD4 31-163): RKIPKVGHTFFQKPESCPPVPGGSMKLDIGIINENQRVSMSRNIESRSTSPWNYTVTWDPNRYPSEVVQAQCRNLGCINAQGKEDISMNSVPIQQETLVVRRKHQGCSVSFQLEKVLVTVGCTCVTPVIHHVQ
The assay is described as follows: IL-17A/F HEK-Blue cell assay (SEAP reporter). It is filed as cell-based. The note with it: HEK-Blue IL-17A reporter cells, IL17A/F 5 ng/mL, 20 hours, SEAP read at A630; read-out: HEK-Blue IL17AF (IC50 for IL-17A/F inhibition).

In the case of `CCn1nccc1C(=O)N[C@H](c1cn2nc(C[C@H]3C[C@@H](C(F)(F)F)CNC3=O)c(C3CCOCC3)nc2n1)C1CCCCCC1` [Compound 289, N—((S)-cycloheptyl(2-(((3R,5R)-2-oxo-5-(trifluoromethyl)piperidin-3-yl)methyl)-3-(tetrahydro-2H-pyran-4-yl)imidazo[1,2-b][1,2,4]triazin-6-yl)methyl)-1-ethyl-1H-pyrazole-5-carboxamide], the IC50 at IL-17A/A and on IL-17A/F was less than 100 nM each time.
For the compound `Cn1nccc1C(=O)N[C@H](c1cn2nc(C[C@H]3C[C@@H](C(F)(F)F)CNC3=O)c(C3CCOCC3)nc2n1)C1CCCCCC1` [Compound 290, N—((S)-cycloheptyl(2-(((3R,5R)-2-oxo-5-(trifluoromethyl)piperidin-3-yl)methyl)-3-(tetrahydro-2H-pyran-4-yl)imidazo[1,2-b][1,2,4]triazin-6-yl)methyl)-1-methyl-1H-pyrazole-5-carboxamide], the IC50 at IL-17A/A and on IL-17A/F was less than 100 nM each time.
`CCn1nccc1C(=O)N[C@H](c1cn2nc(C[C@H]3C[C@@H](C(F)(F)F)CNC3=O)c(C3CCOCC3)nc2n1)[C@H]1C[C@H]2C[C@H]2C1` [Compound 292, N—((S)-((1R,3r,5S)-bicyclo[3.1.0]hexan-3-yl)(2-(((3R,5R)-2-oxo-5-(trifluoromethyl)piperidin-3-yl)methyl)-3-(tetrahydro-2H-pyran-4-yl)imidazo[1,2-b][1,2,4]triazin-6-yl)methyl)-1-ethyl-1H-pyrazole-5-carboxamide]: the figures for the IC50 at IL-17A/A and at IL-17A/F were less than 100 nM and greater than 1000 nM, respectively.
In the same order, the values of `CCc1nc2nc([C@@H](NC(=O)c3ccnn3C)C3CCC(F)(F)CC3)cn2nc1C[C@H]1C[C@@H](C(F)(F)F)CNC1=O` [Compound 295, N—((S)-(4,4-difluorocyclohexyl)(3-ethyl-2-(((3R,5R)-2-oxo-5-(trifluoromethyl)piperidin-3-yl)methyl)imidazo[1,2-b][1,2,4]triazin-6-yl)methyl)-1-methyl-1H-pyrazole-5-carboxamide] are less than 100 nM and greater than 1000 nM.
The corresponding values for `CCn1nccc1C(=O)N[C@H](c1cn2nc(C[C@H]3C[C@@H](C(F)(F)F)CNC3=O)c(N3CCN(C)CC3)nc2n1)C1CCC(F)(F)CC1` [Compound 296, N—((S)-(4,4-difluorocyclohexyl)(3-(4-methylpiperazin-1-yl)-2-(((3R,5R)-2-oxo-5-(trifluoromethyl)piperidin-3-yl)methyl)imidazo[1,2-b][1,2,4]triazin-6-yl)methyl)-1-ethyl-1H-pyrazole-5-carboxamide] are less than 100 nM and 100 to 1000 nM.
The corresponding values for `CCn1nccc1C(=O)N[C@H](c1cn2nc(C[C@H]3CC(F)(F)CNC3=O)c(C3CCOCC3)nc2n1)[C@H]1CC[C@H](C)CC1` [Compound 297] are less than 100 nM and 100 to 1000 nM.
As to `CCn1nccc1C(=O)N[C@H](c1cn2nc(C[C@H]3C[C@@H](C(F)(F)F)CNC3=O)c(N3CCN(C)[C@H](C)C3)nc2n1)C1CCC(F)(F)CC1` [Compound 298, N—((S)-(4,4-difluorocyclohexyl)(3-((R)-3,4-dimethylpiperazin-1-yl)-2-(((3R,5R)-2-oxo-5-(trifluoromethyl)piperidin-3-yl)methyl)imidazo[1,2-b][1,2,4]triazin-6-yl)methyl)-1-ethyl-1H-pyrazole-5-carboxamide], the IC50 at IL-17A/A and on IL-17A/F was less than 100 nM each time.
With `CCn1nccc1C(=O)N[C@H](c1cn2nc(C[C@H]3C[C@@H](C(F)(F)F)CNC3=O)c(C3CCNCC3)nc2n1)C1CCC(F)(F)CC1` [Compound 299, N—((S)-(4,4-difluorocyclohexyl)(2-(((3R,5R)-2-oxo-5-(trifluoromethyl)piperidin-3-yl)methyl)-3-(piperidin-4-yl)imidazo[1,2-b][1,2,4]triazin-6-yl)methyl)-1-ethyl-1H-pyrazole-5-carboxamide], the IC50 on IL-17A/A was 100 to 1000 nM; on IL-17A/F it was greater than 1000 nM.
In the same order, the values of `CCn1nccc1C(=O)N[C@H](c1cn2nc(C[C@H]3C[C@@H](C(F)(F)F)CNC3=O)c(C3CCN(C)CC3)nc2n1)C1CCC(F)(F)CC1` [Compound 300, N—((S)-(4,4-difluorocyclohexyl)(3-(1-methylpiperidin-4-yl)-2-(((3R,5R)-2-oxo-5-(trifluoromethyl)piperidin-3-yl)methyl)imidazo[1,2-b][1,2,4]triazin-6-yl)methyl)-1-ethyl-1H-pyrazole-5-carboxamide] are 100 to 1000 nM and greater than 1000 nM.
In the same order, the values of `CCn1nccc1C(=O)N[C@H](c1cn2nc(C[C@H]3C[C@@H](C(F)(F)F)CNC3=O)c(C3CNC3)nc2n1)C1CCC(F)(F)CC1` [Compound 301, N—((S)-(3-(azetidin-3-yl)-2-(((3R,5R)-2-oxo-5-(trifluoromethyl)piperidin-3-yl)methyl)imidazo[1,2-b][1,2,4]triazin-6-yl)(4,4-difluorocyclohexyl)methyl)-1-ethyl-1H-pyrazole-5-carboxamide] are less than 100 nM and greater than 1000 nM.
For `CCn1nccc1C(=O)N[C@H](c1cn2nc(C[C@H]3C[C@@H](C(F)(F)F)CNC3=O)c(C3CN(C)C3)nc2n1)C1CCC(F)(F)CC1` [Compound 302, N—((S)-(4,4-difluorocyclohexyl)(3-(1-methylazetidin-3-yl)-2-(((3R,5R)-2-oxo-5-(trifluoromethyl)piperidin-3-yl)methyl)imidazo[1,2-b][1,2,4]triazin-6-yl)methyl)-1-ethyl-1H-pyrazole-5-carboxamide], the IC50 was less than 100 nM on IL-17A/A and greater than 1000 nM on IL-17A/F.
On to `CCn1nccc1C(=O)N[C@H](c1cn2nc(C[C@H]3C[C@@H](C)CNC3=O)c(C3CCOCC3)nc2n1)C1CCC(F)(F)CC1` [Compound 303], for which the results for the IC50 at IL-17A/A and on IL-17A/F were less than 100 nM and greater than 1000 nM, respectively.
`CCn1nccc1C(=O)N[C@H](c1cn2nc(C[C@@H]3C[C@@H](C)CNC3=O)c(C3CCOCC3)nc2n1)C1CCC(F)(F)CC1` [Compound 304]: the IC50 was less than 100 nM at IL-17A/A and greater than 1000 nM at IL-17A/F.
In the case of `CCn1nccc1C(=O)N[C@H](c1cn2nc(C[C@H]3C[C@H](C(F)(F)F)CNC3=O)c(N3CCO[C@H](C)C3)nc2n1)[C@@H]1CCCC(F)(F)C1` [Compound 305, N—((S)—((R)-3,3-difluorocyclohexyl)(3-((R)-2-methylmorpholino)-2-(((3R,5S)-2-oxo-5-(trifluoromethyl)piperidin-3-yl)methyl)imidazo[1,2-b][1,2,4]triazin-6-yl)methyl)-1-ethyl-1H-pyrazole-5-carboxamide], the IC50 at IL-17A/A and at IL-17A/F was less than 100 nM each time.
For the compound `CCn1nccc1C(=O)N[C@H](c1cn2nc(C[C@H]3C[C@H](C(F)(F)F)CNC3=O)c(N3CCO[C@@H](C)C3)nc2n1)[C@@H]1CCCC(F)(F)C1` [Compound 306, N—((S)—((R)-3,3-difluorocyclohexyl)(3-((S)-2-methylmorpholino)-2-(((3R,5S)-2-oxo-5-(trifluoromethyl)piperidin-3-yl)methyl)imidazo[1,2-b][1,2,4]triazin-6-yl)methyl)-1-ethyl-1H-pyrazole-5-carboxamide], the IC50 was less than 100 nM at IL-17A/A and 100 to 1000 nM at IL-17A/F.
In the same order, the values of `C[C@@H]1CN(c2nc3nc([C@@H](NC(=O)c4ccnn4C)[C@@H]4CCCC(F)(F)C4)cn3nc2C[C@H]2C[C@@H](C(F)(F)F)CNC2=O)CCO1` [Compound 307, N—((S)—((R)-3,3-difluorocyclohexyl)(3-((R)-2-methylmorpholino)-2-(((3R,5R)-2-oxo-5-(trifluoromethyl)piperidin-3-yl)methyl)imidazo[1,2-b][1,2,4]triazin-6-yl)methyl)-1-methyl-1H-pyrazole-5-carboxamide] are less than 100 nM and less than 100 nM.
In the same order, the values of `C[C@H]1CN(c2nc3nc([C@@H](NC(=O)c4ccnn4C)[C@@H]4CCCC(F)(F)C4)cn3nc2C[C@H]2C[C@@H](C(F)(F)F)CNC2=O)CCO1` [Compound 308, N—((S)—((R)-3,3-difluorocyclohexyl)(3-((S)-2-methylmorpholino)-2-(((3R,5R)-2-oxo-5-(trifluoromethyl)piperidin-3-yl)methyl)imidazo[1,2-b][1,2,4]triazin-6-yl)methyl)-1-methyl-1H-pyrazole-5-carboxamide] are less than 100 nM and 100 to 1000 nM.
In the same order, the values of `C[C@@H]1CN(c2nc3nc([C@@H](NC(=O)c4ccnn4C)[C@@H]4CCCC(F)(F)C4)cn3nc2C[C@H]2C[C@H](C(F)(F)F)CNC2=O)CCO1` [Compound 309, N—((S)—((R)-3,3-difluorocyclohexyl)(3-((R)-2-methylmorpholino)-2-(((3R,5S)-2-oxo-5-(trifluoromethyl)piperidin-3-yl)methyl)imidazo[1,2-b][1,2,4]triazin-6-yl)methyl)-1-methyl-1H-pyrazole-5-carboxamide] are less than 100 nM and 100 to 1000 nM.
On to `C[C@H]1CN(c2nc3nc([C@@H](NC(=O)c4ccnn4C)[C@@H]4CCCC(F)(F)C4)cn3nc2C[C@H]2C[C@H](C(F)(F)F)CNC2=O)CCO1` [Compound 310, N—((S)—((R)-3,3-difluorocyclohexyl)(3-((S)-2-methylmorpholino)-2-(((3R,5S)-2-oxo-5-(trifluoromethyl)piperidin-3-yl)methyl)imidazo[1,2-b][1,2,4]triazin-6-yl)methyl)-1-methyl-1H-pyrazole-5-carboxamide], for which the IC50 is less than 100 nM on IL-17A/A and 100 to 1000 nM at IL-17A/F.

The record behind these values is US20260226068A1, “IMIDAZOTRIAZINE IL-17A MODULATORS AND USES THEREOF” (DICE ALPHA, INC., priority 2023, published 2026).
